The record followed here is patent US10864211B2, “Hydroxy isoxazole compounds useful as GPR120 agonists” (Merck Sharp & Dohme Corp., priority 2016, dated 2020).

SMILES strings stand for the structures. Counter-ions that a name gives are not always drawn.

The experiment concerns the target T1, human GPR120 (Homo sapiens, UniProt Q5NUL3).
T1 construct: expressed in transfected cells; host or cells: CHO-K1
T1 sequence (Q5NUL3 1-361): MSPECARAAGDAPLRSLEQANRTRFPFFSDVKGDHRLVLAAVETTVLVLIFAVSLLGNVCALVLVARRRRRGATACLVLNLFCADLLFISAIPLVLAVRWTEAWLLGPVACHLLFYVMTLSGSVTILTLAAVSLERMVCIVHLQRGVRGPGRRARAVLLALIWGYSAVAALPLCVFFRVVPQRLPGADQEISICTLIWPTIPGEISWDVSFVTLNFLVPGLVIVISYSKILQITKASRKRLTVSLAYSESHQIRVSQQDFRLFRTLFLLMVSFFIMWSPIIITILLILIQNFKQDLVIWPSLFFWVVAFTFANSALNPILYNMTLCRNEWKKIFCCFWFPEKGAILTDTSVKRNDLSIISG
As to the kind of experiment: Human GPR120 IP1 assay (inositol phosphate turnover). In kind it is cell-based. The conditions noted are these: IP1 accumulation in CHO-K1 cells stably expressing the short form of human GPR120. The procedure, abridged:
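Human receptor (short form) was stably expressed in CHO-K1 cells and rat receptor in HEK293 cells. Cells were exposed to compound for 60 min at 37° C in kit stimulation buffer. IP1 was quantified by HTRF 665/620 nm ratio against a standard curve, normalized to a reference compound, with EC50 from 4-parameter fits.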
`Oc1cc(-c2cnc(O[C@H]3C[C@@H](c4ccc(F)c(C(F)F)c4)C3)cn2)on1` [Example 45, 5-[5-({cis-3-[3-(difluoromethyl)-4-fluorophenyl]cyclobutyl}oxy)pyrazin-2-yl]isoxazol-3-ol] yielded a 50% effective concentration (EC50) of 24 nM. For `N#Cc1cccc(COC2CC(Oc3ccc(-c4cc(O)no4)cn3)C2)c1F` (mixture of isomers) [Example 77, ammonium 5-[6-({cis-3-[(3-cyano-2-fluorobenzyl)oxy]cyclobutyl}oxy)pyridin-3-yl]isoxazol-3-olate (mixture of isomers predominantly cis)], the concentration for a half-maximal effect (EC50) was found to be 388 nM. To `Oc1cc(-c2ccc(O[C@H]3C[C@@H](c4ccnc(OC5CC5)c4)C3)nc2)on1` [Example 32, 5-[6-({cis-3-[2-(cyclopropyloxy)pyridin-4-yl]cyclobutyl}oxy)pyridin-3-yl]isoxazol-3-ol] belongs 16 nM; to `Oc1cc(-c2ccc(OC3CC(c4ccc(C5CC5)cc4)C3)nc2)on1` (centres unmarked) [Example 15, 5-(6-{[3-(4-cyclo-propyl-phenyl)cyclobutyl]oxy}pyridin-3-yl)isoxazol-3-ol], 41 nM. In turn, `Oc1cc(-c2ccc(O[C@H]3C[C@@H](c4ccnc(C(F)(F)F)c4)C3)nc2)on1` [Example 21, 5-(3-hydroxyisoxazol-5-yl)-2-({cis-3-[2-(trifluoromethyl)-pyridin-4-yl]cyclobutyl}-oxy)pyridinium chloride] came in with an EC50 of 254 nM. In turn, `CCc1ccc([C@H]2C[C@@H](Oc3ccc(-c4onc(O)c4F)cn3)C2)cc1` [Example 13, ammonium 5-(6-{[cis-3-(4-ethylphenyl)cyclobuty]oxy}pyridin-3-yl)-4-fluoroisoxazol-3-olate] displayed a concentration for a half-maximal effect (EC50) of 181 nM. The EC50 values of the last two molecules are within 1.5-fold of each other. Molecule `CC1(c2ccc(Cl)cc2)CC(Oc2cnc(-c3cc(O)no3)cn2)C1` (centres unmarked) [Example 93, 5-(5-{[3-(4-chlorophenyl)-3-methylcyclobutyl]oxy}pyrazin-2-yl)isoxazol-3-ol] gave a half-maximal effective concentration (EC50) of 215 nM.

With `Oc1cc(-c2cnc(O[C@H]3C[C@@H](c4ccc(Cl)cc4)C3)nc2)on1` [Example 109, 5-(2-{[cis-3-(4-chlorophenyl)cyclobutyl]oxy}pyrimidin-5-yl)isoxazol-3-ol], it took 11 nM to reach a half-maximal effect (EC50). This EC50 is about 20-fold lower than that of the molecule before. The molecule `Oc1cc(-c2ccc(O[C@H]3C[C@@H](c4cc(OC(F)(F)F)ccc4F)C3)nc2)on1` [Example 11, ammonium 5-[6-({cis-3-[2-fluoro-5-(trifluoromethoxy)phenyl]cyclo-butyl}oxy)pyridin-3-yl]isoxazol-3-olate] showed an EC50 of 112 nM. In turn, `Oc1cc(-c2cnc(O[C@H]3C[C@@H](Oc4cccc(C(F)(F)F)c4)C3)cn2)on1` [Example 66, ammonium 5-[5-({cis-3-[3-(trifluoromethyl)phenoxy]cyclobutyl}oxy)pyrazin-2-yl]isoxazol-3-olate] registered a half-maximal effective concentration (EC50) of 37 nM. This EC50 lies about 3-fold lower than the previous one. The molecule `Oc1cc(-c2cnc(O[C@H]3C[C@@H](COc4ccccc4)C3)cn2)on1` [Example 83, sodium 5-(5-{[cis-3-(phenoxymethyl)cyclobutyl]oxy}pyrazin-2-yl)isoxazol-3-olate] yielded an EC50 of 17 nM. Regarding `Oc1cc(-c2cnc(O[C@H]3C[C@@H](c4ccc5c(c4)OCCO5)C3)cn2)on1` [Example 42, ammonium 5-(5-{[cis-3-(2,3-dihydro-1,4-benzodioxin-6-yl)cyclobutyl]oxy}pyrazin-2-yl)isoxazol-3-olate], it took 85 nM to reach a half-maximal effect (EC50). `CC(OC1CC(Oc2ccc(-c3cc(O)no3)cn2)C1)c1ccccc1` (mixture of isomers) [Example 78, 5-(6-{[3-(1-phenylethoxy)cyclobuty]oxy}pyridin-3-yl)isoxazol-3-ol (mixture of isomers)] displayed a 50% effective concentration (EC50) of 305 nM. `Cc1ccc([C@H]2C[C@@H](Oc3ncc(-c4cc(O)no4)cn3)C2)c(F)c1` [Example 114, sodium 5-(2-{[cis-3-(2-fluoro-4-methylphenyl)cyclobutyl]oxy}pyrimidin-5-yl)isoxazol-3-olate] registered an EC50 of 191 nM. This EC50 is about 1.6-fold lower than that of the molecule before. `Oc1cc(-c2cnc(O[C@H]3C[C@@H](c4ccc(C5CC(F)(F)C5)cc4)C3)cn2)on1` [Example 30, 5-[5-({cis-3-[4-(3,3-difluorocyclobutyl)phenyl]cyclobutyl}oxy)pyrazin-2-yl)isoxazol-3-ol] returned an EC50 of 155 nM.

The molecule `CCOc1ccc([C@H]2C[C@@H](Oc3ccc(-c4cc(O)no4)cn3)C2)cn1` [Example 22, 2-ethoxy-5-(cis-3-{[5-(3-hydroxyisoxazol-5-yl)pyridin-2-yl]oxy}cyclobutyl)-pyridinium chloride] gave an EC50 of 92 nM. Turning to `Oc1cc(-c2cnc(O[C@H]3C[C@@H](c4c(F)cc(Cl)cc4F)C3)cn2)on1` [Example 49, ammonium 5-(5-{[cis-3-(4-chloro-2,6-difluorophenyl)-cyclobutyl]oxy}pyrazin-2-yl)isoxazol-3-olate], the midpoint of the response, the EC50, lay at 9.7 nM. Take `Oc1cc(-c2cnc(O[C@H]3C[C@@H](c4ccc(OC(F)F)cc4)C3)cn2)on1` [Example 58, 5-[5-({cis-3-[4-(difluoromethoxy)phenyl]cyclobutyl}oxy)pyrazin-2-yl]isoxazol-3-ol]: the EC50 was 104 nM. This EC50 is about 11-fold higher than that of the molecule before.

Turning to `N#Cc1cccc(COC2CC(Oc3ccc(-c4cc(O)no4)cn3)C2)c1` (mixture of isomers) [Example 73, 3-{[(cis-3-{[5-(3-hydroxyisoxazol-5-yl)pyridin-2-yl]oxy}cyclobutyl)oxy]methyl}benzonitrile (mixture of isomers predominantly cis)], the concentration for a half-maximal effect (EC50) stood at 166 nM. Molecule `Oc1cc(-c2ccc(O[C@H]3C[C@@](F)(c4ccc5c(c4)OC(F)(F)O5)C3)nc2)on1` [Example 104, ammonium 5-(6-{[trans-3-(2,2-difluoro-1,3-benzodioxol-5-yl)-3-fluorocyclobutyl]oxy}pyridin-3-yl)isoxazol-3-olate] came in with an EC50 of 60 nM. Then `Oc1cc(-c2ccc(OC3CCC(c4cccc(OC(F)(F)F)c4)C3)nc2)on1` (single isomer, unassigned) [Example 116, 5-(3-hydroxyisoxazol-5-yl)-2-({3-[3-(trifluoromethoxy)-phenyl]cyclopentyl}oxy)pyridinium trifluoroacetate], with 18 nM; and `Oc1cc(-c2cnc(O[C@H]3C[C@@H](c4ccc(OC(F)(F)F)cn4)C3)cn2)on1` [Example 26, 5-[5-({cis-3-[5-(trifluoromethoxy)pyridin-2-yl]cyclobutyl}oxy)pyrazin-2-yl]isoxazol-3-ol], with 86 nM; and `Oc1cc(-c2cnc(O[C@H]3C[C@@H](COc4ccccc4F)C3)cn2)on1` [Example 85, sodium 5-[5-({cis-3-[(2-fluorophenoxy)methyl]cyclobutyl}oxy)pyrazin-2-yl]isoxazol-3-olate], with 25 nM. With `Oc1cc(-c2cnc(O[C@H]3C[C@@H](c4ccc(F)cc4)C3)nc2)on1` [Example 112, 5-(2-{[cis-3-(4-fluorophenyl)cyclobutyl]oxy}pyrimidin-5-yl)isoxazol-3-ol], a half-maximal effect (EC50) was put at 647 nM. The molecule `Oc1cc(-c2cnc(O[C@H]3C[C@@H](Oc4ccc(C(F)(F)F)cc4)C3)cn2)on1` [Example 67, ammonium 5-[5-({cis-3-[4-(trifluoromethyl)phenoxy]cyclobutyl}oxy)pyrazin-2-yl]isoxazol-3-olate] displayed a 50% effective concentration (EC50) of 47 nM. The molecule `Oc1cc(-c2cnc(O[C@H]3C[C@@H](COc4ccc(F)cc4)C3)cn2)on1` [Example 65, sodium 5-[5-({cis-3-[(4-fluorophenoxy)methyl]-cyclobutyl}oxy)pyrazin-2-yl]isoxazol-3-olate] came in with an EC50 of 5.8 nM.
